According to EP4650362A1, “NEUROPROTECTIVE PSD-95 POLYPEPTIDE INHIBITOR AND USE THEREOF” (Beijing Tuo Jie Biopharmaceutical Co. Ltd., priority 2023, dated 2024):
Read-outs that look alike come from different tables or passages of the source. Non-standard residues stand in square brackets, D forms with d. Residues, ends and D or L forms follow the SMILES beside them. No end group written: not given here. Tle = CC(C)(C)[C@H](N)C(=O)O; Dab = NCC[C@H](N)C(=O)O; Aib = CC(C)(N)C(=O)O

What was measured:
[1] = nephrotoxicity in rats (blood urea nitrogen, serum creatinine); format: in vivo, SD rats; conditions: for Blood urea nitrogen (BUN) levels / Serum creatinine (Crea) levels: rat serum; for renal safety concerns: within the tested concentration range, 7-day monitoring period
Procedure: With male SD rats as test animals, the nephrotoxicity of a polypeptide compound administered via single intravenous bolus injection in rats (serum) was studied.
This test was performed synchronously with Test Examples 3.6, with blood collection time points set as follows: before administration (day 0), and days 2, 4, and 7 post-administration. At each time point, 0.3 mL of blood was collected, transferred to a centrifuge tube, and left to stand at room temperature for 1 h. Then the whole blood sample was centrifuged at 4 °C at 4000 g for 5 min, and a serum sample was obtained by separation and cryopreserved at -80 °C.
The blood urea nitrogen (BUN) and serum creatinine levels at each time point were determined through commercially available kits. For blood urea nitrogen, the urease continuous monitoring method was used. For serum creatinine, the sarcosine oxidase method was used. The sample was thawed in a refrigerator at 2 to 8 °C and vortexed for thorough mixing, and 100 µL of the sample was pipetted into a sample cup. The cup was placed in the sample position of a biochemistry analyzer, and assays were performed according to the instructions of the kits. The experimental results are shown in Tables 8-1 and 8-2, FIG. 5A, and FIG. 5B.

[2] = system: human whole blood; assay: hemolysis risk test in human whole blood; format: cell-based; conditions: for Hemolysis rate (%): Human, 37 °C 1 h; for hemolysis rates: human whole blood, concentration range of 1 to 50 µM
Procedure: This test example assessed whether a polypeptide compound causes hemolytic reactions in rat, rabbit, and human whole blood.
Preparation of red blood cell suspension: 100 µL of fresh whole blood was collected, and 900 µL of 1× PBS solution was then added. The mixture was shaken on a plate shaker at 30 rpm for 5 min and then centrifuged at 1000 g for 5 min, and the supernatant was discarded. The above washing step was repeated until the supernatant no longer appeared red. The suspension was set aside for later use.
Preparation of test polypeptide solutions: An appropriate amount of 1× PBS solution was added to a powdered polypeptide, and the polypeptide was dissolved to form a standard stock solution. […] Meanwhile, blank 1× PBS was used as a negative control, and a 1× PBS solution containing 0.1% Triton X-100 was used as a positive control.
Incubation: A test solution (500 µL) was added to the red blood cell suspension, and then the mixture was well shaken on a plate shaker at 30 rpm for 5 min, incubated at 37 °C for 1 h, and centrifuged at 1000 g for 5 min.
100 µL of the supernatant was transferred to a single well of a microplate. The absorbance at 540 nm was measured using a SpectraMax M5 microplate reader, and data analysis was performed using GraphPad Prism 9. The hemolysis rate (%) was calculated using the formula: (test sample absorbance - negative control absorbance) / (positive control absorbance - negative control absorbance) × 100%. A rate of less than 5% indicates the absence of hemolysis, while a rate of greater than 5% indicates the presence of hemolysis. Table 3. Testing of the hemolysis risk of the polypeptide compound

[3] = pharmacokinetic study in beagle dogs, single intravenous infusion; format: in vivo
Procedure: With standard beagle dogs as test animals, the pharmacokinetic behavior of a polypeptide compound administered via single intravenous infusion in beagle dogs (plasma) was studied.
For polypeptide compound 22, two dose groups were set: 1.2 nmol/g and 0.4 nmol/g. For NA-1, one dose group was set: 1.2 nmol/g. Each group consisted of four animals, with an equal number of males and females. The polypeptide compound was dissolved in 1× PBS, and the polypeptide compound solution was then administered via intravenous infusion over 10 min. The blood collection time points were as follows: before infusion (0 h), 5 min after the start of bolus injection, and 0 min, 2 min, 5 min, 10 min, 15 min, 30 min, 1 h, 2 h, 4 h, 8 h, and 24 h after the end of bolus injection. At each time point, 0.5 mL of blood was collected and transferred to an EDTA-K2 anticoagulation centrifuge tube. Meanwhile, 50 µL of a protease inhibitor was added. After thorough mixing, the mixture was centrifuged at 2000 g for 10 min (4 °C), and the plasma was separated within 1 h, aliquoted into cryopreservation tubes, and stored at -60 to -90 °C. The blood collection-to-centrifugation process was performed under ice bath conditions.
The plasma concentrations of the test compounds were determined using the method in Test Example 3.4.3. Plasma concentration-time curves were plotted, and the pharmacokinetic parameters were calculated using PKSolver software.

[4] = 0.3 nmol/g, day 0 (before administration)
[5] = 1 nmol/g, day 0 (before administration)
[6] = 3 nmol/g, day 0 (before administration)
[7] = beagle dogs, intravenous infusion over 10 min, 0.4 nmol/g, Male
[8] = beagle dogs, intravenous infusion over 10 min, 1.2 nmol/g, Female
[9] = beagle dogs, intravenous infusion over 10 min, 1.2 nmol/g, Male
[10] = both sexes, beagle, dog, in vivo, iv, dogs, same dose (1.2 nmol/g), read-out: average T1/2 (converted)
[11] = dog, plasma, beagle dogs, intravenous infusion over 10 min, 0.4 nmol/g, Female
[12] = dog, plasma, beagle dogs, intravenous infusion over 10 min, 0.4 nmol/g, Male
[13] = dog, plasma, beagle dogs, intravenous infusion over 10 min, 1.2 nmol/g, Female
[14] = dog, plasma, beagle dogs, intravenous infusion over 10 min, 1.2 nmol/g, Male
[15] = dog, in vivo, beagle dogs, intravenous infusion over 10 min, 1.2 nmol/g, Female
[16] = dog, in vivo, beagle dogs, intravenous infusion over 10 min, 1.2 nmol/g, Male

## CC(C)[C@H](NC(=O)[C@H](CC(=O)O)NC(=O)[C@@H](NC(=O)[C@@H](NC(=O)[C@@H](NC(=O)[C@@H](NC(=O)[C@H](CCN)NC(=O)C(C)(C)NC(=O)CNC(=O)[C@@H](CCCNC(=N)N)NC(=O)[C@@H](CCCNC(=N)N)NC(=O)[C@@H](CCCNC(=N)N)NC(=O)[C@@H](CCC(N)=O)NC(=O)[C@@H](CCCNC(=N)N)NC(=O)[C@@H](CCCNC(=N)N)NC(=O)[C@@H](CCCCN)NC(=O)[C@@H](CCCCN)NC(=O)[C@@H](CCCNC(=N)N)NC(=O)CNC(=O)[C@H](N)Cc1ccc(O)cc1)[C@@H](C)O)C(C)(C)C)C(C)(C)C)[C@@H](C)O)C(=O)O [Polypeptide compound 14, y-G-r-k-k-r-r-q-r-r-r-G-Aib-Dab-T-Tle-Tle-T-D-V] (H-[dY]G[dR][dK][dK][dR][dR][dQ][dR][dR][dR]G[Aib][Dab]T[Tle][Tle]TDV-OH)
[1]; [4]
  Blood urea nitrogen (BUN) levels: 11.8 ± 0.1 mg/dL
  Serum creatinine (Crea) levels: 0.192 ± 0.006 mg/dL
[1]; 0.3 nmol/g, day 2
  Blood urea nitrogen (BUN) levels: 13.7 ± 3.7 mg/dL
  Serum creatinine (Crea) levels: 0.200 ± 0.015 mg/dL
[1]; 0.3 nmol/g, day 4
  Blood urea nitrogen (BUN) levels: 16.6 ± 4.6 mg/dL
  Serum creatinine (Crea) levels: 0.212 ± 0.024 mg/dL
[1]; 0.3 nmol/g, day 7
  Blood urea nitrogen (BUN) levels: 15.3 ± 5.2 mg/dL
  Serum creatinine (Crea) levels: 0.205 ± 0.023 mg/dL
[1]; [5]
  Blood urea nitrogen (BUN) levels: 14.2 ± 3.0 mg/dL
  Serum creatinine (Crea) levels: 0.195 ± 0.013 mg/dL
[1]; 1 nmol/g, day 2
  Blood urea nitrogen (BUN) levels: 15.5 ± 1.8 mg/dL
  Serum creatinine (Crea) levels: 0.203 ± 0.018 mg/dL
[1]; 1 nmol/g, day 4
  Blood urea nitrogen (BUN) levels: 17.1 ± 2.7 mg/dL
  Serum creatinine (Crea) levels: 0.208 ± 0.017 mg/dL
[1]; 1 nmol/g, day 7
  Blood urea nitrogen (BUN) levels: 13.7 ± 1.4 mg/dL
  Serum creatinine (Crea) levels: 0.221 ± 0.005 mg/dL
[1]; [6]
  Blood urea nitrogen (BUN) levels: 16.3 ± 1.0 mg/dL
  Serum creatinine (Crea) levels: 0.22 ± 0.015 mg/dL
[1]; 3 nmol/g, day 2
  Blood urea nitrogen (BUN) levels: 16.2 ± 0.7 mg/dL
  Serum creatinine (Crea) levels: 0.208 ± 0.006 mg/dL
[1]; 3 nmol/g, day 4
  Blood urea nitrogen (BUN) levels: 16.0 ± 2.0 mg/dL
  Serum creatinine (Crea) levels: 0.226 ± 0.012 mg/dL
[1]; 3 nmol/g, day 7
  Blood urea nitrogen (BUN) levels: 14.5 ± 1.7 mg/dL
  Serum creatinine (Crea) levels: 0.233 ± 0.014 mg/dL
[1]; rats
  renal safety concerns: neither NA-1 nor polypeptide compound 14 caused significant renal safety concerns
[2]; 1.0 µM
  Hemolysis rate (%): 0.09%
[2]; 2.5 µM
  Hemolysis rate (%): 0.38%
[2]; 5.0 µM
  Hemolysis rate (%): 0.15%
[2]; 10 µM
  Hemolysis rate (%): 0.31%
[2]; 25 µM
  Hemolysis rate (%): 0.08%
[2]; 50 µM
  Hemolysis rate (%): 0.53%
[2]
  hemolysis rates: less than 5%

## CC(C)[C@H](NC(=O)[C@H](CC(=O)O)NC(=O)[C@@H](NC(=O)[C@@H](NC(=O)[C@@H](NC(=O)[C@@H](NC(=O)[C@H](CCN)NC(=O)C(C)(C)NC(=O)CNC(=O)[C@@H](CCCNC(=N)N)NC(=O)[C@H](CCCNC(=N)N)NC(=O)[C@H](CCCNC(=N)N)NC(=O)[C@H](CCC(N)=O)NC(=O)[C@@H](CCCNC(=N)N)NC(=O)[C@H](CCCNC(=N)N)NC(=O)[C@H](CCCCN)NC(=O)[C@H](CCCCN)NC(=O)[C@H](N)CCCNC(=N)N)[C@@H](C)O)C(C)(C)C)C(C)(C)C)[C@@H](C)O)C(=O)O [Polypeptide compound 22, r-K-K-R-r-Q-R-R-r-G-Aib-Dab-T-Tle-Tle-T-D-V] (H-[dR]KKR[dR]QRR[dR]G[Aib][Dab]T[Tle][Tle]TDV-OH)
[3]; beagle dogs, intravenous infusion over 10 min, 0.4 nmol/g, Female
  AUClast/dose: 5730
[3]; [7]
  AUClast/dose: 4513
  Tmax: 10.2 min
[3]; [8]
  AUClast/dose: 6558
  T1/2: 255 min
[3]; [9]
  AUClast/dose: 8183
  T1/2: 354 min
  Tmax: 10.8 min
[3]; [10]
  half-life: 306 min
[3]; [11]
  AUC(0-inf): 5890 ng·h/mL
  Cmax: 3930 ng/mL
  MRT: 220 min
[3]; dog, plasma, beagle dogs, intravenous infusion over 10 min, 0.4 nmol/g, Female, read-out: T1/2 (converted)
  half-life: 170 min
[3]; dog, plasma, beagle dogs, intravenous infusion over 10 min, 0.4 nmol/g, Female, read-out: Tmax
  Tmax: 10.2 min
[3]; [12]
  AUC(0-inf): 5170 ng·h/mL
  Cmax: 2320 ng/mL
  MRT: 277 min
[3]; dog, plasma, beagle dogs, intravenous infusion over 10 min, 0.4 nmol/g, Male, read-out: T1/2 (converted)
  half-life: 202 min
[3]; [13]
  AUC(0-inf): 18000 ng·h/mL
  Cmax: 8130 ng/mL
  MRT: 295 min
[3]; dog, plasma, beagle dogs, intravenous infusion over 10 min, 1.2 nmol/g, Female, read-out: Tmax
  Tmax: 10.8 min
[3]; [14]
  AUC(0-inf): 23500 ng·h/mL
  Cmax: 7680 ng/mL
  MRT: 422 min
[3]; dogs, same dose (1.2 nmol/g)
  average AUC, times that of NA-1: 21.3 times
  average Cmax, times that of NA-1: 1.3 times

## YGRKKRRQRRRKLSSIESDV [NA-1, YGRKKRRQR RRKLSSIESDV, reference compound]
[3]; [8]
  AUClast/dose: 284
  T1/2: 2.4 min
[3]; [9]
  AUClast/dose: 363
  T1/2: 3 min
[3]; [10]
  half-life: 2.7 min
[3]; [15]
  AUC(0-inf): 855 ng·h/mL
  Cmax: 5030 ng/mL
  MRT: 9 min
[3]; dog, in vivo, beagle dogs, intravenous infusion over 10 min, 1.2 nmol/g, Female, read-out: Tmax
  Tmax: 7.8 min
[3]; [16]
  AUC(0-inf): 1100 ng·h/mL
  Cmax: 6780 ng/mL
  MRT: 9.6 min
[3]; dog, in vivo, beagle dogs, intravenous infusion over 10 min, 1.2 nmol/g, Male, read-out: Tmax
  Tmax: 10.2 min
[1]; [6]
  Blood urea nitrogen (BUN) levels: 10.8 ± 1.9 mg/dL
  Serum creatinine (Crea) levels: 0.198 ± 0.007 mg/dL
[1]; 3 nmol/g, day 2
  Blood urea nitrogen (BUN) levels: 14.8 ± 1.9 mg/dL
  Serum creatinine (Crea) levels: 0.215 ± 0.003 mg/dL
[1]; 3 nmol/g, day 4
  Blood urea nitrogen (BUN) levels: 17.2 ± 3.6 mg/dL
  Serum creatinine (Crea) levels: 0.208 ± 0.008 mg/dL
[1]; 3 nmol/g, day 7
  Blood urea nitrogen (BUN) levels: 19 ± 3.3 mg/dL
  Serum creatinine (Crea) levels: 0.209 ± 0.009 mg/dL
[1]; rats, 3 nmol/g, day 4 and day 7
  increase of blood urea nitrogen level compared to before administration: ≤ 2 fold
[1]; rats
  renal safety concerns: neither NA-1 nor polypeptide compound 14 caused significant renal safety concerns
[2]; 1.0 µM
  Hemolysis rate (%): -0.52%
[2]; 2.5 µM
  Hemolysis rate (%): -0.59%
[2]; 5.0 µM
  Hemolysis rate (%): -0.49%
[2]; 10 µM
  Hemolysis rate (%): -0.54%
[2]; 25 µM
  Hemolysis rate (%): -0.53%
[2]; 50 µM
  Hemolysis rate (%): 0.06%
[2]
  hemolysis rates: less than 5%
